Assay results from patent publication EP3046573B1, “AMYLIN ANALOGUES” (Zealand Pharma A/S, priority 2013, dated 2015).
Numbered stars: 1 amine (or outer) side, 2 acyl side, 3 side chain; on linkers, the order of the positions; unused ones are H or OH. Bridge positions count the residues as written; N and C are the ends. Square brackets hold non-standard residues; d marks the D form. Peptide text beside a SMILES is read from it. * marks the point of attachment. C20 diacid = O=C(O)CCCCCCCCCCCCCCCCCCC(=O)*; γGlu = O=C(O)[C@H](CCC(=O)[*:2])N[*:1]; Hyp = O=C(O)[C@@H]1C[C@@H](O)CN1; NMeI = CC[C@H](C)[C@H](NC)C(=O)O; Sar = CNCC(=O)O

Experiments:
[1] = Assessment of chemical stability: normalized purity by RP-HPLC after incubation at 40 °C; assay type: physicochemical; conditions: normalized purity (T=0 set to 100), 0.2 mg/ml
In short: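 Peptides at 0.2 mg/ml in water adjusted to pH 4, 7.5 or 9, held at 40 °C for 7 days. Purity by RP-HPLC (C8/ammonium formate or C18/TFA gradients), UV 220 nm, as main-peak area-%; normalized to T=0 set as 100 for each pH.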

Sprague Dawley (SD) rats = assay: Acute food intake and body weight in normal Sprague Dawley rats; assay type: in vivo; conditions: vehicle-corrected, dose 30 nmol/kg sc, once; for Body weight loss (%) after 96 hours: mean ± SEM, n = 8
In short: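 Normal male-unspecified SD rats, n = 8 per group, given a single s.c. peptide dose of 30 nmol/kg just before dark phase, with vehicle and positive control groups. Food intake recorded at 0, 4, 7, 10, 24, 48, 72 and 96 h; body weight daily; means ± SEM.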

[2] = Assessment of physical stability: fibril formation detected with Thioflavin T (ThT), lag-time; assay type: physicochemical; conditions: 1 mg/ml peptide, 40 µM ThT, FND = Fibrillation not detected; for Fibrillation lag time (hours) pH 4.0 (Ac): 50 mM acetate buffer pH 4.0, 96 hours at 40°C; for Fibrillation lag time (hours) pH 7.0 (His): 50 mM histidine buffer pH 7.0, 96 hours at 40°C; for Fibrillation lag time (hours) pH 7.0 (Ph): 50 mM phosphate buffer pH 7.0, 96 hours at 40°C
In short: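 Test peptide at 1 mg/ml with 40 µM ThT in 50 mM phosphate (pH 7.0), 50 mM histidine (pH 7.0) or 50 mM acetate (pH 4.0), in triplicate, 40° C. for 96 h. Fluorescence read every 10 min after 300 s agitation. Lag-time (h) taken as intersection of linear fits to initial stable and growth phases.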

[3] = Pharmacokinetic (PK) profiling in rats; assay type: in vivo; conditions: male, Sprague Dawley, rat, plasma, single sc bolus, 100 nmol/kg (18, NN96), 20 nmol/kg (72, 76), 30 nmol/kg (73, 82, 118, 162, 166, 172); for CL/F: apparent clearance; for half-life: terminal elimination half-life, read-out: t½ (converted)
Description: Sprague Dawley male rats were given a single subcutaneous (sc) bolus of each peptide to be tested at doses as specified below..
Study A: Following the administration of a 100 nmol/kg dose of a test peptide of the invention (Compound 18) and a comparison pramlintide analogue NN96 (see Example 5, above), respectively, blood samples were drawn from the tail vein at 0.5, 3, 8, 15, 36, 60 and 81 hours post-dosing. 4 rats were used (2 rats per compound). The rats were euthanized immediately after the last blood sampling by overdose of O2/CO2.
Study B: 20 nmol/kg doses of Compound 72 and Compound 76, respectively, of the invention were administered. Blood samples were drawn by sublingual bleeding prior to dosing and at 2, 6, 12, 24, 48, 72 and 96 hours after dosing. 4 rats were used (2 rats per compound). The rats were euthanized immediately after the last blood sampling by overdose of O2/CO2.
Study C: 30 nmol/kg doses of Compound 73, Compound 82 and Compound 118, respectively, of the invention were administered. Blood samples were drawn from the tail vein prior to dosing and at 24, 48, 72 and 96 hours after dosing. Blood samples were taken from two rats at each time point, and only 2 blood samples were drawn from each rat, i.e. 8 rats were used for each compound. The rats were euthanized immediately after the last blood sampling by concussion and cervical dislocation.
Study D: 30 nmol/kg doses of Compound 162, Compound 166 and Compound 172 were administered. Blood samples were drawn from the tail vein prior to dosing and at 24, 48, 72, 96 and 168 hours after dosing. Blood samples were taken from two rats at each time point, and only 2 blood samples were drawn from each rat, i.e. 10 rats were used for each compound. The rats were euthanized immediately after the last blood sampling by concussion and cervical dislocation.
The dosing vehicle used for each test peptide was a mannitol-containing histidine buffer (pH 7.0). Plasma samples were analyzed after precipitation with ethanol by liquid chromatography mass spectrometry (LC-MS/MS). Mean plasma concentrations were used for calculation of the pharmacokinetic parameters using the non-compartmental approach in Phoenix WinNonlin 6.3.
Plasma terminal elimination half-life (t½) was determined as In(2)/λz, where λz is the magnitude of the slope of the log linear regression of the log concentration versus time profile during the terminal phase. Apparent clearance (CL/F) was determined as dose/AUCinf (sc), where AUCinf is the area under the plasma concentration vs. time curve extrapolated to infinity (AUCinf = AUClast + Clast/λz, where Clast is the last observed plasma concentration).

| Fibrillation lag time (hours) pH 4.0 (Ac) [2] | Fibrillation lag time (hours) pH 7.0 (His) [2] | Fibrillation lag time (hours) pH 7.0 (Ph) [2] | CL/F [3] [mL/h/kg] | half-life [3] [h] | SMILES | Chem. stability; 7 days, 40°C pH 4 ([1]; pH 4, 7 days) [area-%] | Chem. stability; 7 days, 40°C pH 7.5 ([1]; pH 7.5, 7 days) [area-%] | Chem. stability; 7 days, 40°C pH 9 ([1]; pH 9, 7 days) [area-%] | Food intake inhibition (%) after 48 hours (Sprague Dawley (SD) rats) [%] | Body weight loss (%) after 96 hours (Sprague Dawley (SD) rats) [%] |
| --- | --- | --- | --- | --- | --- | --- | --- | --- | --- | --- |
| FND | FND | FND | 3.79 | 27.9 | CC[C@H](C)[C@@H](C(=O)N[C@@H](CC(C)C)C(=O)N[C@@H](CO)C(=O)N[C@@H](CO)C(=O)N[C@H](C(=O)N[C@@H](CCC(=O)O)C(=O)N[C@H](C(=O)NCC(=O)N[C@@H](CO)C(=O)N[C@@H](CCC(=O)O)C(=O)N[C@H](C(=O)N1C[C@H](O)C[C@H]1C(N)=O)[C@@H](C)O)C(C)C)[C@@H](C)O)N(C)C(=O)[C@H](C)NC(=O)CN(C)C(=O)[C@H](Cc1ccccc1)NC(=O)[C@H](CO)NC(=O)[C@H](CO)NC(=O)[C@H](CCCNC(=N)N)NC(=O)[C@H](Cc1c[nH]cn1)NC(=O)[C@H](CC(C)C)NC(=O)[C@H](Cc1ccccc1)NC(=O)[C@H](CCC(=O)O)NC(=O)[C@H](C)NC(=O)[C@H](CC(C)C)NC(=O)[C@H](CCCNC(=N)N)NC(=O)[C@H](CCC(=O)O)NC(=O)[C@@H](NC(=O)[C@H](C)NC(=O)[C@@H]1CSSC[C@H](NC(=O)[C@H](CCCNC(=N)N)NC(=O)CC[C@H](NC(=O)CCCCCCCCCCCCCCCCCCC(=O)O)C(=O)O)C(=O)NCC(=O)N[C@@H]([C@@H](C)O)C(=O)N[C@@H](C)C(=O)N[C@@H]([C@@H](C)O)C(=O)N1)[C@@H](C)O [Compound 166, [19CD]-isoGlu-RC()GTATC()ATERLAEFLHRSSF-Gly(Me)-A-Ile(Me)-LSSTEVGSET-Hyp-NH2] ({C20 diacid-γGlu}-RCGTATCATERLAEFLHRSSF[Sar]A[NMeI]LSSTEVGSET[Hyp]-NH2; disulfide 2-7) |  |  |  | 99 | 12 ± 1.6 |
| FND | FND | FND | 9.16 | 24.4 | CC[C@H](C)[C@@H](C(=O)N[C@@H](CC(C)C)C(=O)N[C@@H](CO)C(=O)N[C@@H](CO)C(=O)N[C@H](C(=O)N[C@@H](CC(=O)O)C(=O)N[C@H](C(=O)NCC(=O)N[C@@H](CO)C(=O)N[C@@H](CC(=O)O)C(=O)N[C@H](C(=O)N1CCC[C@H]1C(N)=O)[C@@H](C)O)C(C)C)[C@@H](C)O)N(C)C(=O)[C@H](C)NC(=O)CN(C)C(=O)[C@H](Cc1ccccc1)NC(=O)[C@H](CO)NC(=O)[C@H](CO)NC(=O)[C@H](CCCNC(=N)N)NC(=O)[C@H](Cc1c[nH]cn1)NC(=O)[C@H](CC(C)C)NC(=O)[C@H](Cc1ccccc1)NC(=O)[C@H](CCC(=O)O)NC(=O)[C@H](C)NC(=O)[C@H](CC(C)C)NC(=O)[C@H](CCCNC(=N)N)NC(=O)[C@H](CC(=O)O)NC(=O)[C@@H](NC(=O)[C@H](C)NC(=O)[C@@H]1CSSC[C@H](NC(=O)[C@H](CCCNC(=N)N)NC(=O)CC[C@H](NC(=O)CCCCCCCCCCCCCCCCCCC(=O)O)C(=O)O)C(=O)N2CCC[C@H]2C(=O)N[C@@H]([C@@H](C)O)C(=O)N[C@@H](C)C(=O)N[C@@H]([C@@H](C)O)C(=O)N1)[C@@H](C)O [Compound 172, [19CD]-isoGlu-RC()PTATC()ATDRLAEFLHRSSF-Gly(Me)-A-Ile(Me)-LSSTDVGSDTP-NH2] ({C20 diacid-γGlu}-RCPTATCATDRLAEFLHRSSF[Sar]A[NMeI]LSSTDVGSDTP-NH2; disulfide 2-7) |  |  |  | 99 | 13 ± 1.1 |

| SMILES | Fibrillation lag time (hours) pH 4.0 (Ac) [2] | Fibrillation lag time (hours) pH 7.0 (His) [2] | Fibrillation lag time (hours) pH 7.0 (Ph) [2] | CL/F [3] [mL/h/kg] | half-life [3] [h] | Chem. stability; 7 days, 40°C pH 4 ([1]; pH 4, 7 days) [area-%] | Chem. stability; 7 days, 40°C pH 7.5 ([1]; pH 7.5, 7 days) [area-%] | Chem. stability; 7 days, 40°C pH 9 ([1]; pH 9, 7 days) [area-%] | Food intake inhibition (%) after 48 hours (Sprague Dawley (SD) rats) [%] | Body weight loss (%) after 96 hours (Sprague Dawley (SD) rats) [%] |
| --- | --- | --- | --- | --- | --- | --- | --- | --- | --- | --- |
| CC[C@H](C)[C@@H](C(=O)N[C@@H](CC(C)C)C(=O)N[C@H](CO)C(=O)N[C@@H](CO)C(=O)N[C@H](C(=O)N[C@@H](CC(N)=O)C(=O)N[C@H](C(=O)NCC(=O)N[C@@H](CO)C(=O)N[C@@H](CC(N)=O)C(=O)N[C@H](C(=O)N1CCC[C@H]1C(N)=O)[C@@H](C)O)C(C)C)[C@@H](C)O)N(C)C(=O)[C@H](C)NC(=O)CN(C)C(=O)[C@@H](Cc1ccccc1)NC(=O)[C@H](CC(N)=O)NC(=O)[C@H](CC(N)=O)NC(=O)[C@H](CO)NC(=O)[C@H](CO)NC(=O)[C@H](CCCNC(=N)N)NC(=O)[C@H](Cc1c[nH]cn1)NC(=O)[C@H](CC(C)C)NC(=O)[C@H](Cc1ccccc1)NC(=O)[C@H](CCC(=O)O)NC(=O)[C@H](C)NC(=O)[C@H](CC(C)C)NC(=O)[C@H](CCCNC(=N)N)NC(=O)[C@H](CCC(N)=O)NC(=O)[C@@H](NC(=O)[C@H](C)NC(=O)[C@@H]1CSSC[C@H](NC(=O)[C@H](CCCCN)NC(=O)CC[C@H](NC(=O)CCCCCCCCCCCCCCCCCCC(=O)O)C(=O)O)C(=O)N[C@@H](CC(N)=O)C(=O)N[C@@H]([C@@H](C)O)C(=O)N[C@@H](C)C(=O)N[C@@H]([C@@H](C)O)C(=O)N1)[C@@H](C)O [Compound 72, [19CD]-isoGlu-KC()NTATC()ATQRLAEFLHRSSNN-DPhe-Gly(Me)-A-Ile(Me)-L-DSer-STNVGSNTP] ({C20 diacid-γGlu}-KCNTATCATQRLAEFLHRSSNN[dF][Sar]A[NMeI]L[dS]STNVGSNTP-NH2; disulfide 2-7) | FND | FND | FND | 2.7 | 30.9 | 90 | 81 | 80 | 99 | 12 ± 1.2 |
